In BindingDB's records for doi:10.1021/ml4000595 (Temple University, 2013):

What was measured:
[1] = target: T1, Cytochrome P450 11B2, mitochondrial (Homo sapiens, UniProt P19099); test: Inhibition of human CYP11B2 expressed in hamster V79MZ cells using [1,2-3H]11-deoxycorticosterone as substrate preincubated for 60 mins prior to substrate addition measured after 50 mins by HPLC analysis
T1 sequence (P19099 whole entry): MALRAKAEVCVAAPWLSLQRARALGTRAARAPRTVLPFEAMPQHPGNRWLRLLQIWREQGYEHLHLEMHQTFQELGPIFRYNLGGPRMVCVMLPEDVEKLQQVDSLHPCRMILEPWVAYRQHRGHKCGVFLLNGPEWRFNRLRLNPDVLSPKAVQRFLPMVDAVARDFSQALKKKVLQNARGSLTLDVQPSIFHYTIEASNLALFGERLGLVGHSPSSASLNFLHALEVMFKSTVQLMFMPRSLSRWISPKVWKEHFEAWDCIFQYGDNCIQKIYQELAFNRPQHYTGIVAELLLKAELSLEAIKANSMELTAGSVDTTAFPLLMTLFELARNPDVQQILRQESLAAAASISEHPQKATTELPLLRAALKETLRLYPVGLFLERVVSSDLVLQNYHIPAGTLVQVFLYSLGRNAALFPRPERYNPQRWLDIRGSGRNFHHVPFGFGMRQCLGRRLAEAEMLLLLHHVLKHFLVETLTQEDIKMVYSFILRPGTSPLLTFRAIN

[2] = target: T2, Cytochrome P450 11B1, mitochondrial (Homo sapiens, UniProt P15538); test: Inhibition of human CYP11B1 expressed in hamster V79MZ cells using [1,2-3H]11-deoxycorticosterone as substrate preincubated for 60 mins prior to substrate addition measured after 25 mins by HPLC analysis
T2 sequence (P15538 whole entry): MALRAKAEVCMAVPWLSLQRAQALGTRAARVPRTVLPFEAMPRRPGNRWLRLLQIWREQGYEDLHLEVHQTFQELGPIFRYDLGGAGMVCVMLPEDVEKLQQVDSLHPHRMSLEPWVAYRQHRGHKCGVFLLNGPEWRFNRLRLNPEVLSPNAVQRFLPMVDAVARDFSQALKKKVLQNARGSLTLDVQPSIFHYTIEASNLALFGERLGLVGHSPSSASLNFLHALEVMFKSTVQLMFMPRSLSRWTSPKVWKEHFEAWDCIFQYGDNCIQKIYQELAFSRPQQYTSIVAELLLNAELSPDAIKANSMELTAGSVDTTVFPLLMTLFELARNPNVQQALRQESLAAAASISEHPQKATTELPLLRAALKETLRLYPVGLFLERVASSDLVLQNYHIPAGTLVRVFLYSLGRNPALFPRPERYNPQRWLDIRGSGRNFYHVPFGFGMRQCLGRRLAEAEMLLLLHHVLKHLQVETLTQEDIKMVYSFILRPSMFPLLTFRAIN

Row | Compound | IC50 [1] [nM] | IC50 [2] [nM]
1 | c1csc(-c2ncccc2Cn2ccnc2)c1 | 251 | 16
2 | Oc1ccc(-c2ccc(Cn3ccnc3)cn2)cc1F | 237 | 17
3 | Brc1ncccc1Cn1ccnc1 | 911 | 61
4 | Nc1cccc(-c2ccc(Cn3ccnc3)cn2)c1 | 3410 | 110
5 | Nc1ccc(-c2ccc(Cn3ccnc3)cn2)cc1 | 528 | 106

The next lines start with the values.

Row | IC50 [1] [nM] | IC50 [2] [nM] | Compound
6 | 2080 | 42 | c1ccc2c(-c3ccc(Cn4ccnc4)cn3)cccc2c1
7 | 1160 | 40 | c1ccc2c(-c3ccc(Cn4ccnc4)cn3)csc2c1
8 | 2110 | 101 | Nc1ccccc1-c1ccc(Cn2ccnc2)cn1
